Experimental data taken from US7314959B2, “Amino thiol compounds and compositions for use in conjunction with cancer therapy” (Wisconsin Alumni Research Foundation, priority 2003, dated 2008).
Read-outs that look alike come from different tables or passages of the source.

Key:
[1] = test system: Cytoxan-induced alopecia in rat pups; assay: Cytoxan-induced alopecia in rat pups; assay type: in vivo
Protocol: Induction of alopecia by cytoxan (CTX). Lactating Sprague Dawley mother rats with rat pups were purchased from Harlan Sprague Dawley (Indianapolis, Ind.). The mother rats were given food and water ad libitum. The rats pups were tested in the model of chemotherapy-induced alopecia described by Hussein A. M. et al., Science: 249, 1564 (1990). Cytoxan (CTX), a chemotherapeutic widely used in the treatment of cancer, was used to induce alopecia in the rats. A common side effect of cytoxan treatment in patients is alopecia. Lyophilized vials of Cytoxan were obtained from Mead-Johnson. To produce CTX-induced alopecia, 11 day old rat pups, which are at the peak of coat growth, were injected i.p. with 30-35 μg of CTX/gm body weight. CTX was dissolved in water. By day 18 of life, the animals have shed virtually 100% of their coat leaving bare skin on their backs. Thus, topical application of protective drugs to the animal's back prior to the CTX insult provides a suitable test for prevention of chemotherapy-induced alopecia. A separate alopecia assay was also developed in which whole-body irradiation on day 11 of life was used as the insult. This assay is described in further detail in Example 12 which follows.
In the earliest studies with chemoprotective polyamines, the molecules were prepared in a topical delivery vehicle consisting of from 50-70% ethanol in water, depending on the solubility of the compound. The compounds in ethanol/water solution from 50-150 µl in volume were topically administered to the backs of the pups once per day before and after CTX challenge. Using a micropipette, the formulation was applied to an approximately 2 cm2 section of skin on the backs of the rat pups. Specifically, the pups were treated once daily for the 4-5 days before CTX challenge, once on the day of CTX challenge and once daily for 5 days afterwards. Control groups consisted of pups receiving only delivery vehicle. […]
In the earliest studies with chemoprotective polyamines, hair loss was evaluated using a modified alopecia-scoring index described by Chen G. et al., Int. […] In the later studies with aminothiols a simpler scoring scale was adopted in which coat density was scored on a 0-100 scale as “% of normal coat density.”
Method: To assess the ability of topical treatments to prevent Cytoxan-induced alopecia we used a published protocol (Hussein et al., Science. 249(4976):1564-6, 1990) in which 11 day old neonate rat pups (Sprague-Dawley) receive a total of 6 topical skin treatments of active agent(s) during the 5 hr before and 2 hr after a single ip dose of Cytoxan (32 ug/gm b.w.). […] The density of the rat coats in the topical treatment area was scored on day 18 of life for animals injected with Cytoxan.

[2] = test system: p21 protein in 23SK human skin cells; assay: p21 induction by western analysis; assay type: cell-based; conditions: 23SK cells, 30 hr exposure
Protocol: FIGS. 3A and 3B illustrate the level of induced p21 protein seen in diploid human fibroblasts after a 30 hr exposure to each of the indicated chemoprotective polyamines. […] In these experiments, the 23SK human skin cells were exposed for 30 hr to an “IC80” dose of each of the indicated chemoprotective polyamines and then lysed. Cell extracts were then prepared in order to measure p21 levels by western analysis (FIG. 3A).
FIG. 3 illustrates that chemoprotective polyamines are able to induce expression of the negative cell cycle regulatory protein, p21, after exposing the human skin cells to the polyamine molecules. […] In these experiments, the 23SK human skin cells were exposed for 30 hr to an “IC80” dose of each of the indicated chemoprotective polyamines and then lysed. Cell extracts were then prepared in order to measure p21 levels by western analysis (FIG. 3A). Although the ability of modified polyamines to induce p21 is known in the literature (Kramer, D. et al., Cancer Res. 59:1278-1286, 1999), it is a novel aspect of this invention that those chemoprotective polyamines with longer aliphatic “arms” were better able to induce expression of p21 as shown in FIG. 4.

[3] = test system: primary, diploid fibroblasts isolated from human skin; assay: Growth inhibition of primary diploid human skin fibroblasts; assay type: cell-based; conditions: 50% inhibition of human skin fibroblast growth
Protocol: The in vitro growth inhibitory effects of certain of the chemoprotective polyamines of the invention were measured using primary, diploid fibroblasts isolated from human skin.

[4] = test system: 23SK skin cells; assay: Flow cytometry cell cycle distribution; assay type: cell-based, human; conditions: IC80 dose
Source text: FIGS. 5A-5D are cell histograms showing the results from flow cytometry analysis of chemoprotective polyamine-treated 23SK skin cells.
In FIG. 5, cell histograms showing the results from flow cytometry analysis of chemoprotective polyamine-treated 23SK skin cells are shown. […] The transient nature of the cell cycle block induced by chemoprotective polyamines is believed to be an important aspect of their efficacy, i.e., their ability to block cell cycle progression in stem cells during the course of chemo- or radiotherapy, and the resumption of normal stem cell division after a given cancer therapy course has been completed.

[5] = target: DNA; assay: DNA binding/precipitation from solution; conditions: Expt. 1; read-out: DNA Bind/ppt. IC50 (uM), Expt. 1
Source text: The chemoprotective polyamines provided herein are also able to bind, denature and precipitate DNA from solution. As the skilled artisan will appreciate, as the concentration of polyamine is increased, there is a point where polyamine binding to helical B-DNA induces single-stranded ‘bubbles’ and conversion to other forms of DNA structure, such as Z-DNA (Feuerstein, B. et al., Nuc. Acids Res. 17:6883-6892, 1989; Basu, H. and Marton, L., Biochem. J. 244:243-246, 1987), as well as precipitating the DNA from solution.

Row | IC50 [5] [µM] | SMILES | protection against Cytoxan-induced alopecia ([1]; topical, alcohol:water vehicle, once per day five days before and five days after single systemic Cytoxan dose) | p21 fold-induction at IC80 Dose [2] [fold] | IC50 ([3]; Expt. 1, read-out: IC50 (uM), Expt. 1) [µM] | IC50 ([3]; Expt. 2, read-out: IC50 (uM), Expt. 2) [µM] | Cell Cycle Distribution At IC80 Dose (%) G1 ([4]; G1) [%] | Cell Cycle Distribution At IC80 Dose (%) G2/M ([4]; G2/M) [%] | Cell Cycle Distribution At IC80 Dose (%) S ([4]; S) [%] | Alopecia Score (% Normal Coat Density in Topical Treatment Area) ([1]; Resveratrol 5 umol/day alone, ip Cytoxan 32 ug/gm b.w., Experiment 564-567) [%]
1 | 270 | CCNCCCCNCC=C(CNCC)CNCCCCNCC [PrC-110] | excellent efficacy | 2.91 | 1680 | 809 | 60 | 14 | 26 | 
2 |  | Oc1ccc(/C=C/c2cc(O)cc(O)c2)cc1 [Resveratrol, trihydroxy-trans-stilbene, reference compound] |  |  |  |  |  |  |  | 5
